# Measured values reported in patent US12129237B2, “Substituted diaminocarboxamide and diaminocarbonitrile pyrimidines, compositions thereof, and methods of treatment therewith” (SIGNAL PHARMACEUTICALS, LLC, priority 2011, dated 2024).
# Target: T1, JNK1 (Homo sapiens, UniProt P45983)
# T1 construct: purchased Carna Biosciences
# Assay: JNK1 biochemical assays (one or more of: time resolved fluorescence, Z'-LYTE Cascade, radioactive)
# Settings: Table 2; JNK1 IC50 activity level; read-out: Act. Level
# T1 sequence (P45983 whole entry): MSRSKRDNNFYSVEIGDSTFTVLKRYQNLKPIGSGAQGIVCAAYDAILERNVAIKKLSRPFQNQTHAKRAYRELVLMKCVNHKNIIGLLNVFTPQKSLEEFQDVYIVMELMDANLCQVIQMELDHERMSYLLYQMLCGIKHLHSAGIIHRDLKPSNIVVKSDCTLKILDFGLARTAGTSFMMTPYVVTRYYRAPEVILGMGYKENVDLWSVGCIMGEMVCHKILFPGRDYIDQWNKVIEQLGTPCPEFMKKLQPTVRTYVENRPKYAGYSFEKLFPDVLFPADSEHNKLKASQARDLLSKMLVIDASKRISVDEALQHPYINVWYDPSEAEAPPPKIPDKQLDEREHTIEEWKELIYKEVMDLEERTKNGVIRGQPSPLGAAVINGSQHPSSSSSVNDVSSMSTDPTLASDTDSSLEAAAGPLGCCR
row,SMILES,IC50
1,"CCOc1ccc(Nc2ncc(C(N)=O)c(N[C@H]3CCC[C@@H]3O)n2)cc1 [Example B-1, 2-(4-ethoxyphenylamino)-4-((1S,2S)-2-hydroxycyclopentylamino)pyrimidine-5-carboxamide]",< 0.2 µM
2,"NC(=O)c1cnc(NC2CCOCC2)nc1Nc1ccc2cn[nH]c2c1 [Example B-3, 4-(1H-indazol-6-ylamino)-2-(tetrahydro-2H-pyran-4-ylamino)pyrimidine-5-carboxamide]",< 0.2 µM
3,"NC(=O)c1cnc(NCCc2cccs2)nc1Nc1ccccc1 [Example B-42, 4-(phenylamino)-2-(2-(thiophen-2-yl)ethylamino)pyrimidine-5-carboxamide]",0.2 to 0.8 µM
4,"NC(=O)c1cnc(NCC2CCCCC2)nc1Nc1ccccc1 [Example B-49, 2-(cyclohexylmethylamino)-4-(phenylamino)pyrimidine-5-carboxamide]",0.2 to 0.8 µM

# Same assay, conditions: Table 3; JNK1 IC50 activity level; read-out: Act. Level
row,SMILES,IC50
1,"CCC(C)(C)Nc1nc(N[C@H]2CC[C@H](O)CC2)ncc1C#N [Example C-62, 2-((1r,4r)-4-hydroxycyclohexylamino)-4-(tert-pentylamino)pyrimidine-5-carbonitrile]",< 0.2 µM
2,"CO[C@H]1CC[C@](C)(Nc2ncc(C#N)c(N[C@@H]3CCC[C@H](O)C3)n2)CC1 [Example C-57, 4-((1R,3S)-3-hydroxycyclohexylamino)-2-((1r,4R)-4-methoxy-1-methylcyclohexylamino) pyrimidine-5-carbonitrile]",0.2 to 0.8 µM
3,"CC[C@]1(O)CCC[C@@H](Nc2nc(N[C@H]3CC[C@H](OC)CC3)ncc2C#N)C1 [Example C-33, 4-((1R,3S)-3-ethyl-3-hydroxycyclohexylamino)-2-((1r,4R)-4-methoxycyclohexylamino) pyrimidine-5-carbonitrile]",< 0.2 µM
4,"CN(C)C(=O)[C@H]1CC[C@H](Nc2ncc(C#N)c(N[C@@H]3CCC[C@](C)(O)C3)n2)CC1 [Example C-43, (1R,4r)-4-(5-cyano-4-((1R,3S)-3-hydroxy-3-methylcyclohexylamino)pyrimidin-2-ylamino)-N,N-dimethylcyclohexanecarboxamide]",< 0.2 µM
5,"N#Cc1cnc(NC2CCCCC2)nc1N[C@@H]1CCC[C@H](O)C1 [Example C-10, 2-(cyclohexylamino)-4-((1R,3S)-3-hydroxycyclohexylamino) pyrimidine-5-carbonitrile]",< 0.2 µM

# Same assay, conditions: one or more of the JNK1 biochemical assays; read-out: Act. Level (JNK1 IC50 activity level)
row,SMILES,IC50
1,"CN[C@H]1CC[C@H](Nc2ncc(C(N)=O)c(NC(C)C)n2)CC1 [Example 214, 4-(isopropylamino)-2-((1r,4r)-4-(methylamino)cyclohexylamino)pyrimidine-5-carboxamide]",< 0.2 µM
2,"CCO[C@H]1CC[C@H](Nc2ncc(C(N)=O)c(NC34CC(C3)C4)n2)CC1 [Example 344, 4-(bicyclo[1.1.1]pentan-1-ylamino)-2-((1r,4r)-4-ethoxycyclohexylamino)pyrimidine-5-carboxamide]",< 0.2 µM
3,"CCC(CC)Nc1ncc(C(N)=O)c(N[C@@H]2CCC[C@H](O)C2)n1 [Example 498, 4-((1R,3S)-3-hydroxycyclohexylamino)-2-(pentan-3-ylamino)pyrimidine-5-carboxamide]",< 0.2 µM
4,"CO[C@H]1CC[C@H](Nc2ncc(C(N)=O)c(N[C@H](C)C3CCC3)n2)CC1 [Example 296, 4-((R)-1-cyclobutylethylamino)-2-((1r,4R)-4-methoxycyclohexylamino)pyrimidine-5-carboxamide]",1 to 10 µM
5,"CC1(Nc2nc(N[C@H]3CC[C@H](OC(F)F)CC3)ncc2C(N)=O)CCC1 [Example 416, 2-((1r,4r)-4-(difluoromethoxy)cyclohexylamino)-4-(1-methylcyclobutylamino)pyrimidine-5-carboxamide]",< 0.2 µM
6,"NC(=O)c1cnc(N[C@H]2CC[C@H](OC3CC3)CC2)nc1NC12CC(C1)C2 [Example 368, 4-(bicyclo[1.1.1]pentan-1-ylamino)-2-((1r,4r)-4-cyclopropoxycyclohexylamino)pyrimidine-5-carboxamide]",< 0.2 µM
7,"C[C@@H](Nc1nc(NC2CCOCC2)ncc1C(N)=O)C1CC1 [Example 424, (R)-4-(1-cyclopropylethylamino)-2-(tetrahydro-2H-pyran-4-ylamino)pyrimidine-5-carboxamide]",< 0.2 µM
8,"CCO[C@H]1CC[C@H](Nc2ncc(C(N)=O)c(N[C@H](C)C3CC3)n2)CC1 [Example 411, 4-((R)-1-cyclopropylethylamino)-2-((1r,4R)-4-ethoxycyclohexylamino)pyrimidine-5-carboxamide]",< 0.2 µM
9,"CC[C@H](C)Nc1ncc(C(N)=O)c(N[C@@H]2CC[C@@H](C)[C@H](O)C2)n1 [Example 398, 2-(sec-butylamino)-4-((1R,3R,4R)-3-hydroxy-4-methylcyclohexylamino)pyrimidine-5-carboxamide]",< 0.2 µM
10,"CO[C@H]1CC[C@H](Nc2ncc(C(N)=O)c(NC(C)(C)C3CC3)n2)CC1 [Example 315, 4-(2-cyclopropylpropan-2-ylamino)-2-((1r,4r)-4-methoxycyclohexylamino)pyrimidine-5-carboxamide]",< 0.2 µM
11,"CC1(Nc2nc(N[C@H]3CC[C@H](OC4CC4)CC3)ncc2C(N)=O)CCC1 [Example 400, 2-((1r,4r)-4-cyclopropoxycyclohexylamino)-4-(1-methylcyclobutylamino)pyrimidine-5-carboxamide]",< 0.2 µM
12,"CC1(Nc2nc(N[C@H]3CCCOC3)ncc2C(N)=O)CCC1 [Example 403, (S)-4-(1-methylcyclobutylamino)-2-(tetrahydro-2H-pyran-3-ylamino)pyrimidine-5-carboxamide]",< 0.2 µM
13,"CC(C)(C)Nc1ncc(C(N)=O)c(N[C@@H]2CCC(C)(C)[C@H](O)C2)n1 [Example 324, 2-(tert-butylamino)-4-((1R,3R)-3-hydroxy-4,4-dimethylcyclohexylamino)pyrimidine-5-carboxamide]",< 0.2 µM
14,"CN(C)C(=O)[C@H]1CC[C@H](Nc2ncc(C(N)=O)c(NC(C)(C)C3CC3)n2)CC1 [Example 480, 4-(2-cyclopropylpropan-2-ylamino)-2-((1r,4r)-4-(dimethylcarbamoyl)cyclohexylamino)pyrimidine-5-carboxamide]",< 0.2 µM
15,"C[C@@H](Nc1nc(N[C@H]2CC[C@H](O)CC2)ncc1C(N)=O)C1CCC1 [Example 298, 4-((R)-1-cyclobutylethylamino)-2-((1r,4R)-4-hydroxycyclohexylamino)pyrimidine-5-carboxamide]",< 0.2 µM
16,"C[C@H](Nc1ncc(C(N)=O)c(N[C@@H]2CC[C@@H](C)[C@H](O)C2)n1)C1CC1 [Example 395, 2-((S)-1-cyclopropylethylamino)-4-((1R,3R,4R)-3-hydroxy-4-methylcyclohexylamino)pyrimidine-5-carboxamide]",< 0.2 µM
17,"CC(C)(Nc1nc(N[C@@H]2CCC[C@H](O)C2)ncc1C(N)=O)C1CC1 [Example 466, 4-(2-cyclopropylpropan-2-ylamino)-2-((1R,3S)-3-hydroxycyclohexylamino)pyrimidine-5-carboxamide]",< 0.2 µM

# Same assay, conditions: tested in one or more of the JNK1 biochemical assays; read-out: Act. Level (JNK1 biochemical assay IC50 activity level)
row,SMILES,IC50
1,"CC(C)CC(=O)N1CCC(Nc2ncc(C(N)=O)c(N[C@H]3C[C@@H](O)C3)n2)CC1 [Example A-68, 4-((1s,3s)-3-hydroxycyclobutylamino)-2-(1-(3-methylbutanoyl)piperidin-4-ylamino)pyrimidine-5-carboxamide]",< 0.2 µM
2,"NC(=O)c1cnc(N[C@H]2CC[C@H](OC(F)F)CC2)nc1N[C@@H]1CCCC[C@H](O)C1 [Example A-165, 2-((1r,4R)-4-(difluoromethoxy)cyclohexylamino)-4-((1R,3S)-3-hydroxycycloheptylamino)pyrimidine-5-carboxamide]",< 0.2 µM
3,"CO[C@H]1CC[C@H](Nc2ncc(C(N)=O)c(NC3(CO)CCCC3)n2)CC1 [Example A-78, 4-(1-(hydroxymethyl)cyclopentylamino)-2-((1r,4r)-4-methoxycyclohexylamino)pyrimidine-5-carboxamide]",< 0.2 µM
4,"CCO[C@H]1CC[C@@H](Nc2nc(NC3CCOCC3)ncc2C(N)=O)CC1 [Example A-115, 4-((1s,4s)-4-ethoxycyclohexylamino)-2-(tetrahydro-2H-pyran-4-ylamino)pyrimidine-5-carboxamide]",< 0.2 µM
5,"NC(=O)c1cnc(N[C@H]2CC[C@H](N3CCCC3)CC2)nc1N[C@@H]1CCC[C@H](O)C1 [Example A-153, 4-((1R,3S)-3-hydroxycyclohexylamino)-2-((1r,4R)-4-(pyrrolidin-1-yl)cyclohexylamino)pyrimidine-5-carboxamide]",< 0.2 µM
6,"CCO[C@H]1CCC[C@@H]1Nc1nc(N[C@H]2CC[C@H](OCC)CC2)ncc1C(N)=O [Example A-73, 2-((1r,4S)-4-ethoxycyclohexylamino)-4-((1S,2S)-2-ethoxycyclopentylamino)pyrimidine-5-carboxamide]",< 0.2 µM
7,"COC[C@H]1CC[C@@H](Nc2nc(N[C@H]3CCC(O)C3)ncc2C(N)=O)CC1 (stereo partly drawn) [Example A-99, 2-((1S,3S)-3-hydroxycyclopentylamino)-4-((1s,4R)-4-(methoxymethyl)cyclohexylamino)pyrimidine-5-carboxamide]",< 0.2 µM
8,"NC(=O)c1cnc(NC2CCC(F)(F)CC2)nc1N[C@@H]1CCCC[C@H](O)C1 [Example A-192, 2-(4,4-difluorocyclohexylamino)-4-((1R,3S)-3-hydroxycycloheptylamino)pyrimidine-5-carboxamide]",< 0.2 µM
9,"NC(=O)c1cnc(N[C@H]2CC[C@H](O)CC2)nc1NC1CCCCC1 [Example A-144, 4-(cyclohexylamino)-2-((1r,4r)-4-hydroxycyclohexylamino)pyrimidine-5-carboxamide]",< 0.2 µM
10,"NC(=O)c1cnc(N[C@H]2CC[C@H](O)CC2)nc1NC1CCC1 [Example A-176, 4-(cyclobutylamino)-2-((1r,4r)-4-hydroxycyclohexylamino)pyrimidine-5-carboxamide]",< 0.2 µM
11,"CCO[C@H]1CC[C@@H](Nc2ncc(C(N)=O)c(N[C@H]3CCC[C@@H]3O)n2)CC1 [Example A-62, 2-((1s,4R)-4-ethoxycyclohexylamino)-4-((1S,2S)-2-hydroxycyclopentylamino)pyrimidine-5-carboxamide]",0.8 to 1 µM
